Assay results: PubChem BioAssay AID256 (DTP/NCI, 2004)
Where “and” joins values, the source holds several entries; their conditions need not be identical. Identical values can stand only once. Inconclusive results and toxic doses are left out. How the source made its calls: active means survival T/C of 150% or more; inactive means T/C below 125% in these data.

System: CD2F1 mice, L1210 leukemia ip, survival T/C
Experiment: NCI In Vivo Anticancer Drug Screen. Data for tumor model L1210 Leukemia (intraperitoneal) in CD2F1 (CDF1) mice
Conditions: endpoint: mean survival time, higher = longer survival
Method in brief: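 Ratio T/C, where T is the treated-group value and C the vehicle-dosed control value, from mice implanted with a transplantable tumor.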

[1] = dose: 12.5 mg/kg/injection, schedule: Q04DX003 (ip), vehicle: saline with Tween-80
[2] = dose: 25.0 mg/kg/injection, schedule: Q04DX003 (ip), vehicle: saline with Tween-80
[3] = dose: 50.0 mg/kg/injection, schedule: Q04DX003 (ip), vehicle: saline with Tween-80
[4] = dose: 100.0 mg/kg/injection, schedule: Q04DX002 (ip), vehicle: saline with Tween-80
[5] = dose: 400.0 mg/kg/injection, schedule: Q04DX002 (ip), vehicle: saline with Tween-80
[6] = dose: 100.0 mg/kg/injection, schedule: Q01DX009 (ip), vehicle: saline with Tween-80
[7] = dose: 100.0 mg/kg/injection, schedule: Q04DX003 (ip), vehicle: saline with Tween-80
[8] = dose: 200.0 mg/kg/injection, schedule: Q01DX009 (ip), vehicle: saline with Tween-80
[9] = dose: 200.0 mg/kg/injection, schedule: Q04DX003 (ip), vehicle: saline with Tween-80
[10] = dose: 400.0 mg/kg/injection, schedule: Q01DX009 (ip), vehicle: saline with Tween-80
[11] = dose: 400.0 mg/kg/injection, schedule: Q04DX003 (ip), vehicle: saline with Tween-80

Measured: T/C

CC1(C)CCC(C#N)=C1N
inactive: [1] 97 % of control | [2] 97 % of control | [3] 91 % of control

N#C/C(=C\C1CCCCC1Cl)C1CCC([N+](=O)[O-])CC1 (stereo not given)
inactive: [4] 91 % of control | [5] 87 % of control

CC([NH-])CC[NH-].[I][Pt+2][I] (stereo not given)
inactive: [1] 118 % of control | [2] 124 % of control | [3] 109 % of control

CN(C)N=Nc1ccc(C#N)cc1
inactive: dose: 7.37 mg/kg/injection, schedule: Q01DX009 (ip), vehicle: Klucel (hydroxypropylcellulose) (HPC) 100 % of control | dose: 14.75 mg/kg/injection, schedule: Q01DX009 (ip), vehicle: Klucel (hydroxypropylcellulose) (HPC) 100 % of control | dose: 29.5 mg/kg/injection, schedule: Q01DX009 (ip), vehicle: Klucel (hydroxypropylcellulose) (HPC) 108 % of control | dose: 59.0 mg/kg/injection, schedule: Q01DX009 (ip), vehicle: Klucel (hydroxypropylcellulose) (HPC) 108 % of control | dose: 118.0 mg/kg/injection, schedule: Q01DX009 (ip), vehicle: Klucel (hydroxypropylcellulose) (HPC) 120 % of control and 107 % of control

CCN(CC)CCCOC(=O)c1ccc(N)cc1
inactive: dose: 12.5 mg/kg/injection, schedule: Q04DX003 (ip), vehicle: saline 107 % of control | dose: 25.0 mg/kg/injection, schedule: Q04DX003 (ip), vehicle: saline 105 % of control | dose: 50.0 mg/kg/injection, schedule: Q04DX003 (ip), vehicle: saline 101 % of control

CC1C(=O)OC2C1CCC1(C)C=CC(=O)C3(C)OC213 (stereo not given)
inactive: [4] 108 % of control and 104 % of control | dose: 200.0 mg/kg/injection, schedule: Q04DX002 (ip), vehicle: saline with Tween-80 108 % of control and 124 % of control | [5] 120 % of control

CCCCCCCC(=O)Nc1ccc(-n2c(=O)cc(C)n2C)cc1
inactive: [6] 90 % of control | [7] 90 % of control | [8] 88 % of control | [9] 97 % of control | [10] 86 % of control | [11] 95 % of control

COC(=O)C(O)c1ccc2c(c1)OCO2 (stereo not given)
inactive: [6] 97 % of control | [8] 90 % of control | [10] 90 % of control

NCCCc1ccccc1
inactive: dose: 100.0 mg/kg/injection, schedule: Q01DX009 (ip), vehicle: saline 103 % of control | dose: 200.0 mg/kg/injection, schedule: Q01DX009 (ip), vehicle: saline 90 % of control

O.O=P(O)(O)O.[NH-]C1CCCCC1[NH-].[Pt+2] (stereo not given)
inactive: dose: 50.0 mg/kg/injection, schedule: Q04DX003 (ip), vehicle: water 120 % of control

Clc1ccc(COc2ccc(Cl)cc2Cn2ccnc2)c(Cl)c1
inactive: [6] 101 % of control | [8] 95 % of control | [10] 98 % of control

Cc1ccc(S(=O)(=O)Nc2ccccc2)c(C(O)(c2ccccc2)c2ccccc2)c1
inactive: [7] 95 % of control | [9] 106 % of control | [11] 95 % of control

Nc1ccc(-n2nc3ccc4ccccc4c3n2)cc1
inactive: dose: 25.0 mg/kg/injection, schedule: Q04DX002 (ip), vehicle: saline with Tween-80 98 % of control | dose: 50.0 mg/kg/injection, schedule: Q04DX002 (ip), vehicle: saline with Tween-80 98 % of control | [4] 103 % of control

Cc1cc(C)c(C(=O)CN2CCOCC2)c(C)c1
inactive: [7] 98 % of control | [9] 101 % of control | [11] 95 % of control

COc1ccc(C(O)c2ccccc2S(=O)(=O)N(C)C)cc1 (stereo not given)
inactive: dose: 100.0 mg/kg/injection, schedule: Q01DX009 (ip), vehicle: saline sonified 105 % of control | dose: 200.0 mg/kg/injection, schedule: Q01DX009 (ip), vehicle: saline sonified 96 % of control | dose: 400.0 mg/kg/injection, schedule: Q01DX009 (ip), vehicle: saline sonified 93 % of control

[O-][n+]1c(Cl)nc(Cl)c(Cl)c1C(Cl)(Cl)Cl
inactive: dose: 12.5 mg/kg/injection, schedule: Q04DX003 (ip), vehicle: other 111 % of control | dose: 25.0 mg/kg/injection, schedule: Q04DX003 (ip), vehicle: other 103 % of control

C(=C\c1cc[n+](CCc2ccccc2)cc1)/c1ccccc1
inactive: dose: 6.25 mg/kg/injection, schedule: Q01DX009 (ip), vehicle: saline with Tween-80 104 % of control | dose: 12.5 mg/kg/injection, schedule: Q01DX009 (ip), vehicle: saline with Tween-80 98 % of control | dose: 25.0 mg/kg/injection, schedule: Q01DX009 (ip), vehicle: saline with Tween-80 108 % of control

CC(OC1OC(C(=O)O)C(O)C(O)C1O)c1ccccc1 (stereo not given)
inactive: dose: 100.0 mg/kg/injection, schedule: Q04DX003 (ip), vehicle: saline 98 % of control | dose: 200.0 mg/kg/injection, schedule: Q04DX003 (ip), vehicle: saline 98 % of control | dose: 400.0 mg/kg/injection, schedule: Q04DX003 (ip), vehicle: saline 93 % of control

CCOC(=O)CN(C=O)C(C)c1ccccc1 (stereo not given)
inactive: [7] 98 % of control | [9] 93 % of control | [11] 92 % of control

O=C1c2cccc3cccc(c23)C(=O)N1Cc1ccccc1
inactive: [7] 98 % of control | [9] 87 % of control | [11] 91 % of control
